Source: ChEMBL document CHEMBL4428109, “Structure-activity relationship studies of non-carboxylic acid peroxisome proliferator-activated receptor α/δ (PPARα/δ) dual agonists” (Bioorg Med Chem, 2016)
Calls of active or inactive are those of the source.

Assays:
[1] = biological target: T1, Oxysterols receptor LXR-alpha (Homo sapiens) (UniProt Q13133); assay: Agonist activity at LXRalpha (unknown origin) at < 20 uM
T1 sequence (whole entry): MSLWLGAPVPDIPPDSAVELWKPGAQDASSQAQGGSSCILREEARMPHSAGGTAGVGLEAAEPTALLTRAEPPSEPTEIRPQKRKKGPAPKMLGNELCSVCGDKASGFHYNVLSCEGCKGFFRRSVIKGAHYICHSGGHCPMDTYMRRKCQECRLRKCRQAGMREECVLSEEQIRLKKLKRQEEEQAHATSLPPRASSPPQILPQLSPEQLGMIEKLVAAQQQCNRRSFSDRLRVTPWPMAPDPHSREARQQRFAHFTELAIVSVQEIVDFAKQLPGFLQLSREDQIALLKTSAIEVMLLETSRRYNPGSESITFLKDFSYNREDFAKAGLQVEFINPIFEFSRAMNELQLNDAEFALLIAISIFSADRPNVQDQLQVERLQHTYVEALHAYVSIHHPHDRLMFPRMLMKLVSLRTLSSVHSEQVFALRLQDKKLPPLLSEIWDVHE

[2] = biological target: T2, Retinoic acid receptor RXR-alpha (Homo sapiens) (UniProt P19793); assay: Agonist activity at RXRalpha (unknown origin) at < 20 uM
T2 sequence (whole entry): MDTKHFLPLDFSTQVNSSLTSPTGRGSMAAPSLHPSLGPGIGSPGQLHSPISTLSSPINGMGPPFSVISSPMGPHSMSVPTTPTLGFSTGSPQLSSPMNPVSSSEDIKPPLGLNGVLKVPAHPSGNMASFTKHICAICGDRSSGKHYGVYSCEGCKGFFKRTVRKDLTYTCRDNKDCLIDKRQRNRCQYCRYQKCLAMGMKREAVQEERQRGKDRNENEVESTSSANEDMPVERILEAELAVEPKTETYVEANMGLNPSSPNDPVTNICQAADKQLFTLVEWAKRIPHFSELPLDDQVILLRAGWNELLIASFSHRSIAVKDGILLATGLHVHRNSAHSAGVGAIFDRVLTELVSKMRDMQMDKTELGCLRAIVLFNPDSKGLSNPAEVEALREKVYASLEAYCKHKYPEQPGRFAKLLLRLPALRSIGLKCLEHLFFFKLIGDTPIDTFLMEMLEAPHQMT

[3] = biological target: T3, Retinoic acid receptor RXR-beta (Homo sapiens) (UniProt P28702); assay: Agonist activity at RXRbeta (unknown origin) at < 20 uM
T3 sequence (whole entry): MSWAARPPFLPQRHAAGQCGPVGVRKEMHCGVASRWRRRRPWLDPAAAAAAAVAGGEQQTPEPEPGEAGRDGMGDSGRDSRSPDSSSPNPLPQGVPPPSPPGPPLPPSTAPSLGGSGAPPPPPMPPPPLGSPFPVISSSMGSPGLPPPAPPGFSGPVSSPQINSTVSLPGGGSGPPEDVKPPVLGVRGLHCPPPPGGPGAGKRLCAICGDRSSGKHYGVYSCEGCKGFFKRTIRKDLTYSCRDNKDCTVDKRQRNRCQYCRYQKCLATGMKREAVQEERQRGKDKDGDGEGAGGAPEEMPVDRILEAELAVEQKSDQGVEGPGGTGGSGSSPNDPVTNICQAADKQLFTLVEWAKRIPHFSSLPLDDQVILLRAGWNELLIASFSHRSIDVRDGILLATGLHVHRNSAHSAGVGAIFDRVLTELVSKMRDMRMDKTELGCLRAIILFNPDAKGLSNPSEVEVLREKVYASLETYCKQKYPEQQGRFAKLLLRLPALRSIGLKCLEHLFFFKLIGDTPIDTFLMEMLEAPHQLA

[4] = biological target: T4, Oxysterols receptor LXR-beta (Homo sapiens) (UniProt P55055); assay: Agonist activity at LXRbeta (unknown origin) at < 20 uM
T4 sequence (whole entry): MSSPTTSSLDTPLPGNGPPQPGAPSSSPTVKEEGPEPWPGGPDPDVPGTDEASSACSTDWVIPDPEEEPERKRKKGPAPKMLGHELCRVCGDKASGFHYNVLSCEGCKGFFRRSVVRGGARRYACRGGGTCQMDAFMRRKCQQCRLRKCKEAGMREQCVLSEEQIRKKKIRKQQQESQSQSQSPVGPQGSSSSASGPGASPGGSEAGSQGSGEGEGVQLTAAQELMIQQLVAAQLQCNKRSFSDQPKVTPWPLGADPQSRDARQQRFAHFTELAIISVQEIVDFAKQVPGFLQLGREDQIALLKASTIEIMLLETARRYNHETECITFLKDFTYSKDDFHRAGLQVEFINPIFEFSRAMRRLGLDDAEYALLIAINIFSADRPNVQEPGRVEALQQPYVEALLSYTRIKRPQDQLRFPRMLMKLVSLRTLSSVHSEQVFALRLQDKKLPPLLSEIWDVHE

[5] = biological target: T5, Retinoic acid receptor RXR-gamma (Homo sapiens) (UniProt P48443); assay: Agonist activity at RXRgamma (unknown origin) at < 20 uM
T5 sequence (whole entry): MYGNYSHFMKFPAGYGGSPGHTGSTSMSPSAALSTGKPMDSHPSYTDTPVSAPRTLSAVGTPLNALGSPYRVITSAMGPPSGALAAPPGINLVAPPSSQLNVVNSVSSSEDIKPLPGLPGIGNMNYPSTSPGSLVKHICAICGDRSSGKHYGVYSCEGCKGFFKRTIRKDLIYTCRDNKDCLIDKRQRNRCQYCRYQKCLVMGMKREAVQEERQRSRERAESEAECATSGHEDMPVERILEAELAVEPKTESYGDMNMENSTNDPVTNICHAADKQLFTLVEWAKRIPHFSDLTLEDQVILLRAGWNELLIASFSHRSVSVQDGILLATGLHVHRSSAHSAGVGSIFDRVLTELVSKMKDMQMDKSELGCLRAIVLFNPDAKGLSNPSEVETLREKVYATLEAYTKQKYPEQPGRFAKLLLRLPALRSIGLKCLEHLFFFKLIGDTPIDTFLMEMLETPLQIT

[6] = biological target: T6, Bile acid receptor (Homo sapiens) (UniProt Q96RI1); assay: Agonist activity at FXR (unknown origin) at < 20 uM
T6 sequence (whole entry): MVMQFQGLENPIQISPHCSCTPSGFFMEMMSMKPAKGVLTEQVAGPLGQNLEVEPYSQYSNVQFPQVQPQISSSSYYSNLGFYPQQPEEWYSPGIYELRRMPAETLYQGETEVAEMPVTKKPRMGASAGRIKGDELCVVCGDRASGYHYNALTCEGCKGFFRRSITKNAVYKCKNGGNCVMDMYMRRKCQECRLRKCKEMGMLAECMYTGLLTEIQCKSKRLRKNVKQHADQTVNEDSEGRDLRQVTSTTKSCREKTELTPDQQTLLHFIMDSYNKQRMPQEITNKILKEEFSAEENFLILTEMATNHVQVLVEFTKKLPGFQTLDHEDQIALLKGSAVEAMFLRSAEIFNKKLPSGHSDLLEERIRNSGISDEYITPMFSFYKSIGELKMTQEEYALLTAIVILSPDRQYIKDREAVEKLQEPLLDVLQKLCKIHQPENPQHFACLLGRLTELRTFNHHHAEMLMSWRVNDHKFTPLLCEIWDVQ

Measured: Activity

CC(=O)NC(C)c1nc(-c2ccc(Oc3ccc(O)cc3)cc2)no1 (stereo unspecified)
inactive: all assays above
